Test results from the NIST ThermoML archive (doi:10.1021/je200637v).
± gives the expanded uncertainty stated by the source.

Experiment: activity coefficient (dimensionless); of the first substance listed, at infinite dilution; xn = mol fraction of the nth substance listed
Details: Liquid, Chromatography, x1 = 0

| SMILES | activity coefficient (322.85 K) | activity coefficient (332.65 K) | activity coefficient (343.15 K) |
| --- | --- | --- | --- |
| ClC(Cl)Cl [trichloromethane] + CCCCCCCC[N+](CCCCCCCC)(CCCCCCCC)CCCCCCCC.O=S(=O)([N-]S(=O)(=O)C(F)(F)F)C(F)(F)F | 0.34 ± 0.04 | 0.35 ± 0.04 | 0.36 ± 0.04 |
| ClC(Cl)Cl [trichloromethane] + CCCC[N+](C)(CCCC)CCCC.O=S(=O)([N-]S(=O)(=O)C(F)(F)F)C(F)(F)F | 0.84 ± 0.03 | 0.87 ± 0.03 | 0.88 ± 0.03 |
| CCN(CC)CC [triethylamine] + CCCCCCCCCC[N+](C)(C)C.O=S(=O)([N-]S(=O)(=O)C(F)(F)F)C(F)(F)F | 2.17 ± 0.1 | 2.4 ± 0.11 | 2.31 ± 0.1 |
| CCN(CC)CC [triethylamine] + CCCCCCCC[N+](CCCCCCCC)(CCCCCCCC)CCCCCCCC.O=S(=O)([N-]S(=O)(=O)C(F)(F)F)C(F)(F)F | 1.03 ± 0.03 | 1.05 ± 0.03 | 1.02 ± 0.03 |
| CCCCCCCCCCC [undecane] + CCCCCCCCCC[N+](C)(C)C.O=S(=O)([N-]S(=O)(=O)C(F)(F)F)C(F)(F)F | 12.4 ± 0.57 | 12.2 ± 0.56 | 11.4 ± 0.52 |
| CCCCCCCCCCC [undecane] + CCCCCCCC[N+](C)(C)C.O=S(=O)([N-]S(=O)(=O)C(F)(F)F)C(F)(F)F | 25.8 ± 1.2 | 23.7 ± 1.1 | 21.1 ± 0.98 |
| CCCCCCCCCCC [undecane] + CCCCCCCC[N+](CCCCCCCC)(CCCCCCCC)CCCCCCCC.O=S(=O)([N-]S(=O)(=O)C(F)(F)F)C(F)(F)F |  |  | 2.54 ± 0.12 |
| CCCCCCCCCCC [undecane] + CCCC[N+](C)(CCCC)CCCC.O=S(=O)([N-]S(=O)(=O)C(F)(F)F)C(F)(F)F | 25.7 ± 1.2 | 24.8 ± 1.1 | 22.8 ± 1.1 |
